We go through 35 compounds from ChEMBL document CHEMBL4483862, “Open-source discovery of chemical leads for next-generation chemoprotective antimalarials” (2018).

For the experiment, the system named is Plasmodium berghei. Nature of the experiment: Luciferase/luciferin-expressing antifolate-resistant parasites were used to infect a culture of HepG2 cells that were pre-incubated with compounds. Infected hepatocytes emit light due to the luciferase reaction. Assay results are presented as the percent inhibition of light emission compared to control. […]. The following applies: sporozoite; for IC90: read-out: LUCIFERASE INFECTION ASSAY - IC90. Format: functional.

[1] abbreviates: read-out: LUCIFERASE INFECTION ASSAY - IC50.

Broadly, the IC50 is the concentration that inhibits the measured activity by half. In general, IC90 refers to the concentration at which the effect reaches the 90% level. Take `CCCS(=O)(=O)N1CCC(NC(=O)c2scnc2C)CC1`: the IC90 is over 10 µM. Besides, under setting [1], the IC50 was over 10 µM.
As for `Cc1cccc(C)c1/N=c1\scc(-c2cccc(Cl)c2)n1/N=C/C1CC=CCC1` (stereo not given), the IC90 was over 10 µM. Besides, the IC50 under setting [1] was over 10 µM.
`O=C(OCC(=O)C12CC3CC(CC(C3)C1)C2)c1ccc(Oc2ccc(Cl)cc2[N+](=O)[O-])cc1`: the IC90 is over 10 µM. Moreover, the IC50 (FFLUC_HILL_SLOPE 17.5, FFLUC_R_SQUARED 0.352, PBLUC_HILL_SLOPE 8.52, PBLUC_R_SQUARED 0.214, read-out: LUCIFERASE INFECTION ASSAY - IC50) turned out to be 9.42 µM.
Take `c1ccc(-c2csc3ncnc(N4CCN(c5cnccn5)CC4)c23)cc1`: the IC90 was over 10 µM. In addition, the IC50 under setting [1] is over 10 µM.
For `CCc1cc(=O)n2nc(-c3ccccc3)c(-c3ccccc3)c2[nH]1`, the IC90 was over 10.5 µM. Further, the IC50 (HEPG2TOX_HILL_SLOPE 1.41, HEPG2TOX_R_SQUARED 0.964, PBLUC_HILL_SLOPE 4.43, PBLUC_R_SQUARED 0.223, read-out: LUCIFERASE INFECTION ASSAY - IC50) amounted to 7.37 µM.
Turning to `Cc1nn(-c2ccccc2)c2sc(-c3[nH]nc(-c4ccccc4)c3-c3nc4ccccc4[nH]3)cc12`, the IC90 stood at 7.66 µM. Moreover, the IC50 (FFLUC_HILL_SLOPE 1.87, FFLUC_R_SQUARED 0.663, HEPG2TOX_HILL_SLOPE 0.372, HEPG2TOX_R_SQUARED 0.356, PBLUC_HILL_SLOPE 1.24, PBLUC_R_SQUARED 0.688, read-out: LUCIFERASE INFECTION ASSAY - IC50) was 1.3 µM.
Take `COc1ccc(-c2cc3ncnc(NCc4ccc(N5CCN(C)CC5)nc4)c3s2)cc1`: the IC90 was 4.79 µM. For the same compound, the IC50 (HEPG2TOX_HILL_SLOPE 1.93, HEPG2TOX_R_SQUARED 0.825, PBLUC_HILL_SLOPE 2.26, PBLUC_R_SQUARED 0.8, read-out: LUCIFERASE INFECTION ASSAY - IC50) was 1.81 µM.
For `O=C(NCC1CCCO1)c1cc2c([nH]c3ccccc32)c(-c2ccc(F)cc2)n1` (stereo not given), the IC90 was 8.34 µM. Moreover, where the note is “HEPG2TOX_HILL_SLOPE 1.25, HEPG2TOX_R_SQUARED 0.9, PBLUC_HILL_SLOPE 2.06, PBLUC_R_SQUARED 0.74, read-out: LUCIFERASE INFECTION ASSAY - IC50”, the IC50 turned out to be 2.86 µM.
On to `CC(=O)Nc1ccc(-c2cnc3ccc(-c4ccc(F)c(Cl)c4)nn23)cc1`, for which the IC90 was 3.52 µM. For the same compound, for the setting “FFLUC_HILL_SLOPE 64.9, FFLUC_R_SQUARED 0.6, HEPG2TOX_HILL_SLOPE 8.77, HEPG2TOX_R_SQUARED 0.612, PBLUC_HILL_SLOPE 16.7, PBLUC_R_SQUARED 0.645, read-out: LUCIFERASE INFECTION ASSAY - IC50”, the IC50 turned out to be 3.09 µM.
`CCC(=O)Nc1ccc(CNC(=O)N2CCN(c3ccccc3C)CC2)cc1`: the IC90 is 1.73 µM. Further, where the note is “PBLUC_HILL_SLOPE 9.1, PBLUC_R_SQUARED 0.639, read-out: LUCIFERASE INFECTION ASSAY - IC50”, the IC50 was found to be 1.36 µM.
Regarding `COc1ccc(CN2C(=O)c3ccccc3C(/C=N\OCc3ccc(F)cc3)C2=O)cc1` (stereo not given), the IC90 is over 7.63 µM. Moreover, under “FFLUC_HILL_SLOPE 3.53, FFLUC_R_SQUARED 0.589, read-out: LUCIFERASE INFECTION ASSAY - IC50”, the IC50 was over 7.63 µM.
Turning to `COc1cc2ccccc2cc1C(=O)OC(C(=O)Nc1ccc(C)c(Cl)c1)c1ccccc1` (stereo not given), the IC90 is over 10 µM. Also, the IC50 (FFLUC_HILL_SLOPE 12, FFLUC_R_SQUARED 0.255, PBLUC_HILL_SLOPE 12.6, PBLUC_R_SQUARED 0.137, read-out: LUCIFERASE INFECTION ASSAY - IC50) is over 10 µM.
With `Cc1ccc2c(c1)C1CN(C)CCC1N2C(=O)c1cc(-c2ccc(F)cc2)nc2ccccc12` (stereo not given), the IC90 is over 10 µM. Also, the IC50 under setting [1] was over 10 µM.
As to `Cc1cc(C)n2cc(CN(C)Cc3ccccc3)nc2n1`, the IC90 was over 10 µM. Further, the IC50 under setting [1] was over 10 µM.
Take `Cc1ccc(-c2c(C)nn3c(=O)cc(C)[nH]c23)cc1`: the concentration for an effect of 90% (IC90) stood at 12.5 µM. Moreover, under “HEPG2TOX_HILL_SLOPE 4.15, HEPG2TOX_R_SQUARED 0.53, PBLUC_HILL_SLOPE 4.03, PBLUC_R_SQUARED 0.493, read-out: LUCIFERASE INFECTION ASSAY - IC50”, the IC50 is 7.24 µM.
As to `CCOc1cccc(-c2cn3c(-c4ccc(C(=O)N5CCN(C)CC5)cc4)cnc3cn2)c1`, the IC90 is 7.28 µM. Further, the IC50 (PBLUC_HILL_SLOPE 18.7, PBLUC_R_SQUARED 0.82, read-out: LUCIFERASE INFECTION ASSAY - IC50) is 6.48 µM.
Consider `CC(C)C(NC(=O)c1ccc(C(C)(C)C)cc1)C(=O)Nc1ncc(Cc2ccc(Cl)cc2)s1` (stereo not given), for which the IC90 is over 10 µM. Under setting [1], the IC50 is over 10 µM.
Take `O=C(c1cccs1)N1CCN(Cc2csc(C3CCCCC3)n2)CC1`: the IC90 was over 10 µM. In addition, where the note is “HEPG2TOX_HILL_SLOPE 7.59, HEPG2TOX_R_SQUARED 0.857, PBLUC_HILL_SLOPE 2.36, PBLUC_R_SQUARED 0.0477, read-out: LUCIFERASE INFECTION ASSAY - IC50”, the half-maximal inhibitory concentration (IC50) turned out to be 5.47 µM.
For the compound `CC(C)c1cc(C(C)C)c(S(=O)(=O)Nc2ccc(O)cc2)c(C(C)C)c1`, the IC90 came out at 3.98 µM. Also, the IC50 (FFLUC_HILL_SLOPE 2.79, FFLUC_R_SQUARED 0.606, PBLUC_HILL_SLOPE 11.9, 14.6, PBLUC_R_SQUARED 0.380, 0.737, read-out: LUCIFERASE INFECTION ASSAY - IC50) came to 3.36 µM.
As to `FC(F)Oc1ccccc1/C=N/n1c(-c2ccc3c(c2)OCCO3)cs/c1=N\CC1CCCO1` (stereo not given), the IC90 was over 10 µM. Besides, the IC50 under setting [1] is over 10 µM.
For `CCc1c(C)sc2nc(SCC3COc4ccccc4O3)n(-c3ccc(C)c(C)c3)c(=O)c12` (stereo not given), the concentration for an effect of 90% (IC90) was over 10 µM. For the same compound, the IC50 under setting [1] is over 10 µM.
Take `O=S(=O)(Nc1cc(C(F)(F)F)cc(C(F)(F)F)c1)c1cc(Cl)ccc1Cl`: the IC90 was over 7.53 µM. Moreover, under “HEPG2TOX_HILL_SLOPE 2.59, HEPG2TOX_R_SQUARED 0.793, PBLUC_HILL_SLOPE 6.41, PBLUC_R_SQUARED 0.152, read-out: LUCIFERASE INFECTION ASSAY - IC50”, the IC50 was determined as 6.18 µM.
For `c1ccn(C2CCNCC2)c1`, the IC90 is over 22 µM. In addition, the half-maximal inhibitory concentration (IC50) under setting [1] was over 22 µM.
For the compound `COC(=O)c1ccc(C(=O)OC)c(N(C)S(C)(=O)=O)c1`, the IC90 is over 11 µM. The IC50 under setting [1] is over 11 µM.
`CCN(CCO)c1ccc(Nc2cc(C(=O)Nc3ccccc3)ncn2)cc1`: the IC90 stood at 7.92 µM. Moreover, the IC50 (HEPG2TOX_HILL_SLOPE 13.5, HEPG2TOX_R_SQUARED 0.28, PBLUC_HILL_SLOPE 1.45, PBLUC_R_SQUARED 0.807, read-out: LUCIFERASE INFECTION ASSAY - IC50) amounted to 1.74 µM.
As to `Cc1oc2cc(OCC(=O)N3CCc4ccccc43)ccc2c(=O)c1-c1c(F)cccc1Cl`, the IC90 is over 10 µM. For the same compound, under “FFLUC_HILL_SLOPE 15.3, FFLUC_R_SQUARED 0.621, read-out: LUCIFERASE INFECTION ASSAY - IC50”, the IC50 is over 10 µM.
For the compound `CC(C)c1ccc(Nc2nccc3nc(-c4cccc(F)c4)[nH]c23)cc1`, the IC90 was over 10 µM. Moreover, the IC50 (HEPG2TOX_HILL_SLOPE 1.91, HEPG2TOX_R_SQUARED 0.651, PBLUC_HILL_SLOPE 0.872, PBLUC_R_SQUARED 0.722, read-out: LUCIFERASE INFECTION ASSAY - IC50) turned out to be 1.39 µM.
On to `O=C(/C=C/c1cccc(NC(=O)C(F)(F)F)c1)c1cc2ccccc2o1`, for which the IC90 turned out to be 5.08 µM. Moreover, the IC50 (HEPG2TOX_HILL_SLOPE 11, HEPG2TOX_R_SQUARED 0.396, PBLUC_HILL_SLOPE 8.92, PBLUC_R_SQUARED 0.395, read-out: LUCIFERASE INFECTION ASSAY - IC50) came out at 3.97 µM.
Consider `COc1ccc(-c2cnc3cnc(-c4ccc(OC(F)(F)F)cc4)cn23)cn1`, for which the IC90 is over 8.54 µM. Besides, for the setting “PBLUC_HILL_SLOPE 11.4, PBLUC_R_SQUARED 0.148, read-out: LUCIFERASE INFECTION ASSAY - IC50”, the IC50 is over 8.54 µM.
Consider `CCN(C(S)=Nc1cccnc1)c1cccc2ccccc12`, for which the IC90 is over 10 µM. The half-maximal inhibitory concentration (IC50) (HEPG2TOX_HILL_SLOPE 1.34, HEPG2TOX_R_SQUARED 0.711, PBLUC_HILL_SLOPE 4.21, PBLUC_R_SQUARED 0.184, read-out: LUCIFERASE INFECTION ASSAY - IC50) is 7.6 µM.
Consider `CCNC(=O)c1cccc(Nc2ccc(C(=O)c3ccccc3)cc2)c1`, for which the IC90 amounted to 8.6 µM. For the same compound, the IC50 (PBLUC_HILL_SLOPE 4.36, PBLUC_R_SQUARED 0.612, read-out: LUCIFERASE INFECTION ASSAY - IC50) was 5.2 µM.
Consider `CN(C)c1nc(N)nc(CSc2nc(N)c3c4c(sc3n2)CCCC4)n1`, for which the IC90 is over 10 µM. In addition, the IC50 (HEPG2TOX_HILL_SLOPE 2.63, HEPG2TOX_R_SQUARED 0.627, PBLUC_HILL_SLOPE 2.91, PBLUC_R_SQUARED 0.214, read-out: LUCIFERASE INFECTION ASSAY - IC50) turned out to be 9.21 µM.
On to `O=C(Cc1cn2ccsc2n1)NNC(=O)c1cc(Cl)ccc1O`, for which the IC90 is 0.414 µM. In addition, the 50% inhibitory concentration (IC50) (HEPG2TOX_HILL_SLOPE 0.838, HEPG2TOX_R_SQUARED 0.788, PBLUC_HILL_SLOPE 20.5, PBLUC_R_SQUARED 0.865, read-out: LUCIFERASE INFECTION ASSAY - IC50) came out at 0.372 µM.
In the case of `Cc1ccc(S(=O)(=O)N/N=C/c2c(C)nn(-c3ccccc3)c2C)cc1[N+](=O)[O-]`, the 90% effect concentration (IC90) was over 10 µM. The IC50 under setting [1] was over 10 µM.
`Cn1c(Nc2ccccc2)nc2cnc(Nc3ccc(Oc4ccccc4)cc3)cc21`: the IC90 is over 10 µM. The IC50 (PBLUC_HILL_SLOPE 3.01, PBLUC_R_SQUARED 0.581, read-out: LUCIFERASE INFECTION ASSAY - IC50) was 5.93 µM.
